Source: US8293705B2, “HCV protease inhibitors and uses thereof” (Avila Therapeutics, Inc., priority 2007, dated 2012)

Key:
HCV NS3•4A protease WT = HCV NS3•4A protease WT (Hepatitis C virus genotype 1b, UniProt Q9WMX2); assay: cell-based
HCV NS3/4A wild type = biological target: T1, HCV NS3/4A wild type (Hepatitis C virus genotype 1b, UniProt Q9WMX2); assay: Mass spectrometric analysis of covalent modification (MALDI-TOF); assay type: binding; conditions: 10× excess of test compound to protein
T1 construct: HCV NS3/4A wild type (wt) was incubated for 1 hr at a 10× fold access of test compound to protein; purchased Bioenza, Calif
Method in brief: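 HCV NS3/4A protease (100 pmol wild type; C159S mutant as comparison) incubated with 10-fold molar excess of compound for 1 and 3 h. Samples acidified in 0.1% TFA, C4 ZipTip-desalted, analysed by MALDI-TOF intact-mass measurement in linear mode, sinapinic acid matrix.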

[1] = biological target: T2, HCV NS3/4A 1b protease A156T (Hepatitis C virus genotype 1b, UniProt Q9WMX2, A1182T); assay: HCV protease FRET assay (IC50), Example 15; assay type: biochemical
T2 construct: 10× stocks of NS3/4A protease enzyme from Bioenza (Mountain View, Calif.); purchased Bioenza (Mountain View, Calif.)
Experimental: (§1) The following protocol was used to generate IC50 values as depicted for compound 239 in Table 4, above. The protocol is a modified FRET-based assay (v—02) from In Vitro Resistance Studies of HCV Serine Protease Inhibitors, 2004, JBC, vol. 279, No. 17, pp 17508-17514.
(§2) 10× stocks of NS3/4A protease enzyme from Bioenza (Mountain View, Calif.) and 1.13× 5-FAM/QXL™520 FRET peptide substrate from Anaspec (San Jose, Calif.) were prepared in 50 mM HEPES, pH 7.8, 100 mM NaCl, 5 mM DTT and 20% glycerol. 5 μL of each enzyme were pre-incubated in a Corning (#3573) 384-well, black, non-treated microtiter plate (Corning, N.Y.) for 30 min at 25° C. with a 0.5 μL volume of 50% DMSO and serially diluted compounds prepared in 50% DMSO. Protease reactions were started with the addition of 45 μL of the FRET substrate and monitored for 120 minutes at λex487/λem514 through Quad^4 monochromoters in a Synergy^4 plate reader from BioTek (Winooski, Vt.). At the conclusion of each assay, progress curves from each well were examined for linear reaction kinetics and fit statistics (R^2, absolute sum of squares). Initial velocity (0 minutes to 30+ minutes) from each reaction was determined from the slope of a plot of relative fluorescence units vs time (minutes) and then plotted against inhibitor concentration to estimate IC50 from log [Inhibitor] vs Response, Variable Slope model in GraphPad Prism from GraphPad Software (San Diego, Calif.).
(§3) The compound numbers correspond to the compound numbers in Table 3. […] ;

[2] = biological target: T3, HCV NS3/4A 1b protease D168A (Hepatitis C virus genotype 1b, UniProt Q9WMX2, D1194A); assay: HCV protease FRET assay (IC50), Example 15; assay type: biochemical
T3 construct: 10× stocks of NS3/4A protease enzyme from Bioenza (Mountain View, Calif.); purchased Bioenza (Mountain View, Calif.)
Experimental: as §1, §2, §3

[3] = biological target: T4, HCV NS3/4A 1b protease wild type (Hepatitis C virus genotype 1b, UniProt Q9WMX2); assay: HCV protease FRET assay (IC50), Example 15; assay type: biochemical
T4 construct: 10× stocks of NS3/4A protease enzyme from Bioenza (Mountain View, Calif.); purchased Bioenza (Mountain View, Calif.)
Experimental: as §1, §2, §3

[4] = system: HCV RNA replicon in cell line ET (luc-ubi-neo/ET), human Huh7 hepatoma; assay: HCV RNA replicon assay, Example 14 Method A; assay type: cell-based; conditions: Hepatitis C virus, Huh-7, assay of Example 14, 72 hr; for IC50: read-out: Inhibition, Replicon (IC50); for IC90: read-out: Inhibition, Replicon, IC90 value
Experimental: The compounds were assayed to evaluate the antiviral activity and cytotoxicity of compounds in vitro using HCV RNA replicons. This assay used the cell line ET (luc-ubi-neo/ET), which is a human Huh7 hepatoma cell line that contains an HCV RNA replicon with a stable luciferase (Luc) reporter and three cell culture-adaptive mutations. […]
The ET cell line was grown in Dulbecco's modified essential media (DMEM), 10% fetal bovine serum (FBS), 1% penicillin-streptomycin (pen-strep), 1% glutamine, 250 μg/mL G418 in a 5% CO2 incubator at 37° C. All cell culture reagents were obtained from Mediatech (Manassas, Va.). Cells were trypsinized (1% trypsin:EDTA) and plated out at 5×10^3 cells/well in white 96-well assay plates (Costar) dedicated to cell number (cytotoxicity) or antiviral activity assessments. Drugs were added at six 3-fold concentrations each and the assay was run in DMEM, 5% FBS, 1% pen-strep, 1% glutamine. Human interferon alpha-2b (PBL Biolabs, New Brunswick, N.J.) was included in each run as a positive control compound. Cells were processed 72 hr post drug addition when the cells are still subconfluent. Antiviral activity was measured by analyzing replicon-derived luciferase activity using the Steady-Glo Luciferase Assay System (Promega, Madison, Wis.) according to manufacturer's instruction. The number of cells in each well was determined by CytoTox-1 reagent (Promega). Compound profile was derived by calculating applicable EC50 (effective concentration inhibiting virus replication by 50%), EC90 (effective concentration inhibiting virus replication by 90%), IC50 (concentration decreasing cell viability by 50%) and SI50 (selective index: […]) values.

[5] = biological target: T2, HCV NS3/4A 1b protease A156T; assay: HCV protease FRET assay (IC50_APP), Example 16; assay type: biochemical
[6] = biological target: T3, HCV NS3/4A 1b protease D168A; assay: HCV protease FRET assay (IC50_APP), Example 16; assay type: biochemical
[7] = biological target: T4, HCV NS3/4A 1b protease wild type; assay: HCV protease FRET assay (IC50_APP), Example 16; assay type: biochemical
[8] = biological target: T5, HCV NS3/4A mutant R155K protease (Hepatitis C virus genotype 1b, UniProt Q9WMX2, R1181K); assay: Mass spectrometric analysis of covalent modification (MALDI-TOF); assay type: binding; conditions: 3 hours, 10× excess of compound
T5 construct: mass spectroscopic analysis of HCV NS3/4A mutant R155K protease in the presence of test compound I-11
Experimental: (§4) As depicted in FIGS. 4, 5, 6, and 7, mass spectrometric analysis of HCV mutants in the presence of compound I-11 was performed. […] 2 ul aliquots of the samples were diluted with 10 ul of 0.1% TFA prior to micro C4 ZipTipping directly onto the MALDI target using Sinapinic acid as the desorption matrix (10 mg/ml in 0.1% TFA:Acetonitrile 50:50). For intact protein mass measurement the instrument was set in linear mode using a pulsed extraction setting of 24,500 and apomyoglobin as the standard to calibrate the instrument.

[9] = biological target: T6, HCV NS3/4A mutant A156T protease (Hepatitis C virus genotype 1b, UniProt Q9WMX2, A1182T); assay: as above; assay type: binding; conditions: 3 hours, 10× excess of compound
T6 construct: mass spectroscopic analysis of HCV NS3/4A mutant A156T protease in the presence of test compound I-11
Experimental: as §4

[10] = biological target: T7, HCV NS3/4A 1b protease R155K (Hepatitis C virus genotype 1b, UniProt Q9WMX2, R1181K); assay: HCV protease FRET assay (IC50_APP), Example 16; assay type: biochemical; conditions: reaction started immediately after enzyme addition, read-out: Inhibition (apparent IC50, IC50_APP), HCV R155K
T7 construct: 10× stocks of NS3/4A protease enzyme from Bioenza (Mountain View, Calif.); purchased Bioenza (Mountain View, Calif.)

[11] = system: HCV RNA replicon in cell line ET (luc-ubi-neo/ET), human Huh7 hepatoma; assay: Replicon luciferase assay, Example 26; assay type: cell-based; conditions: Hepatitis C virus, Huh-7, assay of Example 26, 72 hr; for EC50: read-out: Inhibition, Replicon, EC50 value
Experimental: The compounds were assayed to evaluate the antiviral activity and cytotoxicity of compounds using replicon-derived luciferase activity. This assay used the cell line ET (luc-ubi-neo/ET), which is a human Huh7 hepatoma cell line that contains an HCV RNA replicon with a stable luciferase (Luc) reporter and cell culture-adaptive mutations. The ET cell line was grown in a 5% CO2 incubator at 37° C. in Dulbecco's modified essential media (DMEM) supplemented with 2 mM L-glutamine, nonessential amino acids, 100 U of penicillin/ml, 100 μg of streptomycin/mL, and 10% fetal bovine serum. G418 (Geneticin; Invitrogen) was added at a final concentration of 400 ug//mL.
All cell culture reagents were obtained from Invitrogen (Carlsbad). Cells were trypsinized (1% trypsin:EDTA) and plated out at 5×10^3 cells/well in white 96-well assay plates (Costar) dedicated to cell number (cytotoxicity) or antiviral activity assessments. Test compounds were added at six 3-fold concentrations each and the assay was run in DMEM, 5% FBS, 1% pen-strep, 1% glutamine, 1% non essential amino acid. Human interferon alpha-2b (PBL Biolabs, New Brunswick, N.J.) was included in each run as a positive control compound. Cells were processed 72 hr post test compound addition when the cells were still subconfluent. Antiviral activity was measured by analyzing replicon-derived luciferase activity using the Steady-Glo Luciferase Assay System (Promega, Madison, Wis.) according to manufacturer's instruction. The number of cells in each well was determined by Cell Titer Blue Assay (Promega). Compound profile was derived by calculating applicable EC50 (effective concentration inhibiting virus replication by 50%), EC90 (effective concentration inhibiting virus replication by 90%), IC50 (concentration decreasing cell viability by 50%) and SI50 (selective index: […]) values.

[12] = biological target: T8, HCV NS3/4A 1b protease C159S (Hepatitis C virus genotype 1b, UniProt Q9WMX2, C1185S); assay: HCV protease FRET assay (IC50_APP), Example 16; assay type: biochemical; conditions: reaction started immediately after enzyme addition, read-out: Inhibition (apparent IC50, IC50_APP), HCV C159S
T8 construct: 10× stocks of NS3/4A protease enzyme from Bioenza (Mountain View, Calif.); purchased Bioenza (Mountain View, Calif.)

[13] = biological target: T9, NS3 protease self-cleavage in Huh-7-Luc-Neo-ET replicon cells (Hepatitis C virus genotype 1b, UniProt Q9WMX2, E1202G/T1280I); assay: Inhibition of protease self cleavage in replicon cells (washout); assay type: cell-based; conditions: 16 hours continuous exposure
T9 construct: blotted with polyclonal anti NS3 antibody (Bioenza, Calif.)
Experimental: Huh-7-Luc-Neo-ET cells were plated in Replicon Assay Medium (RPMI supplemented with 5% FBS, 1× non-essential amino acids and pen/strep) at a density of 1×10^5 cells/well in 12 well plates. Eight hours later the media was removed and replaced with 1 ml media containing test compound (5 wells per compound) and 0.02% DMSO and the cells were returned to the incubator overnight. Sixteen hours later 1 well from each compound and 1 untreated well were washed with PBS, then lysed and scraped into 30 ul of Cell Extraction Buffer (Biosource, Camarillo, Calif.) plus Complete Protease Inhibitor (Roche, Indianapolis, Ind.). The remaining wells were rinsed 2× with PBS then fed with Replicon Media and returned to the incubator. […]
Cell lysates were separated by SDS-Page (4-20%) and transferred to Immobilon-P PVDF membrane (Millipore Corporation, MA) and blotted with polyclonal anti NS3 antibody (Bioenza, Calif.). Blots were scanned on an Odyssey infrared scanner from Licor and the FL band and cleavage products were quantified separately using the Licor software provided with the scanner. The cleavage product was calculated as a percentage of the total NS3 in each sample and then normalized to the DMSO control so that the DMSO control reflects 100% activity.

[14] = Inhibition (IC50), HCV D168A, FRET, 30 min pre-incubation at 25° C.

SMILES	IC50 (HCV NS3•4A protease WT)	Covalent modification of HCV NS3/4A wild type (HCV NS3/4A wild type; MALDI-TOF)	Mass increase of new protein species vs protein with no compound (HCV NS3/4A wild type; 1 hr)	IC50 ([1]; Comparative IC50 Values, A156T, biochemical assay, applicant's compound)	IC50 ([1]; Inhibition (IC50), HCV A156T, FRET, 30 min pre-incubation at 25° C.)	IC50 ([2]; Comparative IC50 Values, D168A, biochemical assay, applicant's compound)	IC50 [2, 14]	IC50 [3]	IC50 [4]	IC90 [4]	IC50 [5]	IC50 [6]	IC50 [7]	Conversion of HCV (R155K) mutant to compound adduct [8]	Conversion of HCV (A156T) mutant to compound adduct [9]	IC50 [10]	EC50 [11]	IC50 [12]	NS3 internal self-cleavage products after treatment of replicon cells [13]	EC90 ([11]; read-out: Inhibition, Replicon, EC90 value)
C=CC(=O)NC[C@H](NC(=O)OC(C)(C)C)C(=O)N1C[C@H](OC(=O)N2Cc3cccc(F)c3C2)C[C@H]1C(=O)N[C@]1(C(=O)NS(=O)(=O)C2CC2)C[C@H]1C=C [Compound I-1, (3R,5S)-1-((S)-3-acrylamido-2-(tert-butoxycarbonylamino)propanoyl)-5-((1R,2S)-1-(cyclopropylsulfonylcarbamoyl)-2-vinylcyclopropylcarbamoyl)pyrrolidin-3-yl 4-fluoroisoindoline-2-carboxylate]	0.66 nM	reacted significantly	approximately 751 Da	3 nM	< 10 nM	8 nM	< 10 nM	< 10 nM	10 to 100 nM	10 to 100 nM	10 to 100 nM	100 to 1000 nM	< 10 nM							
C=CC(=O)N(C)C[C@H](NC(=O)OC(C)(C)C)C(=O)N1C[C@H](OC(=O)N2Cc3cccc(F)c3C2)C[C@H]1C(=O)N[C@]1(C(=O)NS(=O)(=O)C2CC2)C[C@H]1C=C [Compound I-11, (3R,5S)-1-((S)-2-(tert-butoxycarbonylamino)-3-(N-methylacrylamido)propanoyl)-5-((1R,2S)-1-(cyclopropylsulfonylcarbamoyl)-2-vinylcyclopropylcarbamoyl)pyrrolidin-3-yl 4-fluoroisoindoline-2-carboxylate]							10 to 100 nM	< 10 nM	< 10 nM	10 to 100 nM	< 10 nM	10 to 100 nM	< 10 nM	good conversion	complete conversion	10 to 100 nM				
C=C[C@@H]1C[C@]1(NC(=O)[C@@H]1CC(OC(=O)N2Cc3cccc(F)c3C2)CN1C(=O)[C@H](CC(=O)C=C(C)C)NC(=O)OC(C)(C)C)C(=O)NS(=O)(=O)C1CC1 (some centres unmarked) [Compound I-32]											< 10 nM	10 to 100 nM	< 10 nM			10 to 100 nM	< 10 nM	< 10 nM		
CC(C)(C)OC(=O)N[C@H]1CN(C(=O)CCl)CCC/C=C\[C@@H]2C[C@@]2(C(=O)NS(=O)(=O)C2CC2)NC(=O)[C@@H]2CC(OC(=O)N3Cc4cccc(F)c4C3)CN2C1=O (some centres unmarked) [Compound I-47]												10 to 100 nM	< 10 nM			10 to 100 nM	10 to 100 nM		inhibited	100 to 1000 nM
